Measured values as given in article PMC11634579, “Network pharmacology, experimental validation and pharmacokinetics integrated strategy to reveal pharmacological mechanism of goutengsan on methamphetamine dependence” (Frontiers in Pharmacology, 2024).

Legend:
cAMP = assay: Elisa detection of cAMP in MA-induced SH-SY5Y cells; assay type: cell-based, human; settings: vs MA model group (100 μmol ·L^−1 MA, 48 h); 4x equivalent dose GTS-containing serum, MK-801 100 μmol ·L^−1
Description: (§1) An equal volume of the complete culture medium was added to the control group. The drug-containing culture medium (100 μmol ·L^−1 MA) was added to MA model group. […] After medication, all groups were continued for 48 h, photographed, and used for the next experiment.
(§2) The above SH-SY5Y cells were inoculated onto a 6-well plate, and cultured for 24 h. Then the culture medium was aspirated. The cells were rinsed with phosphate buffered salt (PBS) once. After PBS was removed, a hydrochloric acid solution was added. The cells were scraped to form cell suspension. After centrifugation, the supernatant was extracted, and the cAMP and 5-HT levels of the cells were detected according to the instructions of an Elisa reagent kit (Dakewei Biotechnology Co., Ltd.) ([Zhan et al., 2022]).

5-HT = assay: Elisa detection of 5-HT in MA-induced SH-SY5Y cells; assay type: cell-based, human; settings: vs MA model group (100 μmol ·L^−1 MA, 48 h); 4x equivalent dose GTS-containing serum, MK-801 100 μmol ·L^−1
Description: as §1, §2

MA-induced CPP effect = assay: MA-dependent rat conditioned place preference (CPP) model; assay type: in vivo, Sprague-Dawley (SD) rats; settings: vs MA model group, GTS 11.00 g crude drug/kg i.p., MK-801 10 mg/kg i.p.
Description: Male Sprague-Dawley (SD) rats weighing 180–220 g (2 months old) were provided by the Experimental Animal Center of Southern Medical University. The rats were maintained at room temperature (20 ± 2) °C, humidity (60 ± 5)%, 12 h light cycles, and provided an ad libitum diet. Before commencing the experiment, the rats were allowed to acclimatize for a minimum of 3 days. The Southern Medical University Experimental Animal Ethics Committee approved all animal experiments, which were conducted in accordance with the National Institutes of Health Guide for the Care and Use of Laboratory Animals (NIH publication #85–23, revised 1985). […] An MA-dependent rat CPP model was established in our previous studies and MA was used at 2 mg/kg ([Li et al., 2018b]). […] Before administration, determine the dosing volume based on each rat’s body weight; for example, a 200 g rat would receive a 1 mL dose.
Given the scarcity and specificity of […], we decided to use a 4x equivalent dose of GTS as the therapeutic dose. Thus, in the current study, only one treatment dose group of GTS was selected.
The CPP exam was made up of three phases over the course of 10 days (Figure 5A). During the habituation phase (days 1–3), each rat was allowed to move freely firom the black to white compartment for 30 min each day. On day 3, rats were videotaped throughout a 15-min trial and their movement trajectories, time spent and total movement distances were recorded. The door was closed to keep the two compartments apart during the conditioning period (on days 4–9). […] Rats were given the same amount of physiological saline (s.c.) in each group after an 8-h break, and they were then promptly segregated into the black compartment for 1 h. […] At 0:00 a.m. on day 10 (testing phase), the formal CPP testing began, rats were videotaped throughout a 15-min trial using Noldus Ethovision XT 8.5 software, and their movement trajectories, time spent and total movement distances were recorded.

[1] = test system: pyramidal cells in hippocampal CA1; assay: HE staining of rat hippocampal CA1 after CPP test; assay type: in vivo, Sprague-Dawley (SD) rats; settings: vs MA model group
From the text: After the CPP test, a cervical dislocation method was used to euthanize the rats. The brain tissue of each rat was cut along the midline of the sagittal plane in the head. […] The hippocampus consists of CA1, CA2, CA3, and CA4. Specifically, CA1 is mainly composed of […], and is more suitable for MA-dependent observation ([Zhong et al., 2012]). Therefore, the pyramidal cells in hippocampal CA1 were mainly observed after hematoxylin-eosin (HE) staining. The hippocampal CA1 after HE staining was observed under microscopy and then photographed.

## C[C@]12N[C@H](Cc3ccccc31)c1ccccc12 [MK-801, Dizocilpine]
cAMP
  level of cAMP in SH-SY5Y cells: same trend as GTS treatment group
5-HT
  level of 5-HT in SH-SY5Y cells: same trend as GTS treatment group
MA-induced CPP effect; once daily days 5–9
  movement trajectory in CPP box after MA training: significantly decreased
MA-induced CPP effect; n = 10
  time spent in the white box after MA training: same trend as GTS treatment group
  total movement distances in the white box after MA training: same trend as GTS treatment group
[1]
  damage of pyramidal cells in hippocampal CA1 (HE staining): significantly reduced damage
